Experimental data reported in patent US20220323402A1, “TREATMENT, AMELIORATION OR PREVENTION OF A VIRAL INFECTION” (priority 2019, published 2022).

Tests used:
[1] = tested on: ZIKV (Puerto Rico strain, PRVABC59); experiment: Flow cytometry quantification of HepG2 cells positive for Flavivirus antigen after ZIKV infection; format: cell-based, Zika virus; details: HepG2, ZIKV moi=1, 48 h; FIG. 7C
Procedure: FIGS. 7A-7K: AHR signaling boosts ZIKV replication in vitro. Flow cytometry quantification of HepG2 cells positive for Flavivirus antigen. HepG2 cells were pre-treated with different concentrations of I3S, CH223191 or DMSO (vehicle) and infected with ZIKV (moi=1) for 48 h. Plots shown are representative of one experiment. Bar graphs (FIG. 7C) represent the mean+s.e.m. of Flavivirus antigen positive cells from at least three independent experiments. P values were determined by a one-way ANOVA followed by Tukey's post-hoc test.
Stock solutions of I3S and CH223191 were prepared in DMSO, aliquoted and stored according to manufacturer's instructions. For CH223191, cells were pre-treated for 90 minutes and then used for further studies. For I3S, cells were pre-treated overnight.
Cells were fixed and permeabilized using Cytofix/Cytoperm (BD Biosciences). Secondary antibody for flow cytometry was phycoerythrin (PE) goat anti-mouse IgG (BD Biosciences) at a concentration of 1:200. Cells were analyzed on a Guava easyCyte flow cytometer and data was processed using FlowJo software.

[2] = tested on: AHR; experiment: AHR modulation in A549 cells, qPCR of AHR and CYP1A1; format: cell-based; details: 24 h; FIG. 61
Procedure: FIGS. 61A and 61B: AHR modulation by small molecules in A549 cells. A549 cells were treated with the indicated concentrations of I3S (FIG. 61A) or CH223191 (FIG. 61B) for 24 h. Then, cells were harvested for RNA extraction and qPCR analysis of AHR and CYP1A1.

[3] = tested on: Cell cultures; experiment: Cell viability by MTT assay; format: cell-based; details: at the concentrations tested; FIGS. 9A-9B
Procedure: FIGS. 9A and 9B: Toxicity of I3S and CH223191. Cell viability after treatment for 24 h with different concentrations of I3S (FIG. 9A) and CH223191 (FIG. 9B) evaluated by MTT assay.
Cell cultures grown in 96-well plates were exposed for 48 h to serial two-fold compound dilutions, three wells for each concentration and viability was measured with 3-(4,5-dimethylthiazol-2-yl)-2,5-diphenyl tetrazolium bromide (MTT, Sigma-Aldrich).

[4] = tested on: AHR; experiment: AHR modulation in NPCs, qPCR of AHR, CYP1A1, IDO1 and TDO2; format: cell-based, human; details: at the concentrations tested; NPCs 24 h; FIGS. 10A-10D
Procedure: FIGS. 10A-10D: AHR modulation in NPCs. NPCs were treated with I3S or a combination of I3S and CH223191. 24 h after treatment, NPCs were harvested for RNA extraction followed by qPCR analysis of AHR (FIG. 10A), CYP1A1 (FIG. 10B), IDO1 (FIG. 100) and TDO2 (FIG. 10D). Data represent the mean+s.e.m. from three independent experiments. P values were determined by Student's t-test.
RNA was extracted using the RNAeasy kit (Qiagen). cDNA was synthesized using the High-Capacity cDNA Reverse Transcription kit (Applied Biosystems) and qPCR was performed using TaqMan Fast Advanced Master Mix (Applied Biosystems). Gene expression was normalized to GAPDH. Primers and probes (Applied Biosystems) were: GAPDH Hs02786624_g1, IFNB1 Hs01077958_s1, AHR Hs00169233_m1, PML Hs00971694_m1, CYP1A1 Hs01054796_g1, IFITM1 Hs00705137_s1, CYP1B1 Hs02382916_s1, CXCL10 Hs00171042_m1, IDO1 Hs00984148_m1, IDO2 Hs01589373_m1, IFITM Hs00705137_s1, TDO Hs00194611_m1. Primers and probes for the specific detection of Zika virus RNA were utilized as previously described^81, 82. For viral load determination in vivo, brains and spleens from pups were macerated on trizol (Invitrogen) for RNA extraction. RNA pellets were resuspended in RNase-free water and quantified by spectrophotometry (NanoDrop—Thermo Scientific) and stored at −80° C. […] Quantification was compared with threshold cycle (Ct) value with a ZIKV plasmid standard curve.

[5] = tested on: DENV-1, DENV-2, DENV-3, DENV-4; experiment: DENV plaque assay of supernatants of A549 cells; format: cell-based, dengue virus; details: A549 pretreated 24 h, moi=0.1; FIG. 62
Procedure: FIG. 62: AHR activation boosts DENV replication. A549 cells were pretreated with the indicated concentrations of I3S for 24 h and infected with DENV-2 (moi=0.1). 48 h p.i. supernatants were harvested for plaque assay.
FIGS. 63A-63D: AHR modulation affects DENV replication. Infectious virus particles in the supernatants of A549 cells pre-treated with CH2213191 and infected with DENV-1 (FIG. 63A), DENV-2 (FIG. 63B), DENV-3 (FIG. 63C) or DENV-4 (FIG. 63D) (moi=0.1). At 24 h p.i. supernatants were harvested for plaque assay.

[6] = tested on: ZIKV; experiment: Effect of inhibitors of IFN signaling on ZIKV replication in HepG2 cells, plaque assay; format: cell-based, Zika virus; details: HepG2 pre-treated 24 h, plaque assay 24 h p.i.; FIG. 22
Procedure: HepG2 cells were pre-treated with DMSO (vehicle), JAK I Inhibitor, TSA, or NaF for 24 h and infected with ZIKV. Data represent the mean+s.e.m. from three independent experiments. P values were determined by a one-way ANOVA followed by Tukey's post-hoc test.
I3S (Indoxyl 3-sulfate, Sigma, used at 50-500 μM as indicated for each experiment), CH223191 (Tocris, used at 2-30 μM), Sodium fluoride (Sigma, 1 mM), Trichostatin A (Sigma, 100 nM), JAK I Inhibitor (Santa Cruz Biotechnology, 1 μM). HP163 was the generous gift of Hercules Pharmaceuticals, BV, (Galileiweg 8, 2333 BD, The Netherlands). CB7993113 has been described previously^80. HP163, is a monoalkylated amide of CB7993113 optimally formulated in a 5% tween, 45% PEG, 50% saline mixture. […] The structural formulas of the compounds used in this study are reproduced below.

Molecule: O=S(=O)(O)Oc1c[nH]c2ccccc12 [I3S, Indoxyl 3-sulfate]
- percentage of HepG2 cells expressing viral antigen [1]: increased
- AHR activation in A549 cells [2]: activated
- cytotoxic effects [3]: no cytotoxic effects were detected
- AHR inhibition / activation [4]: activation
- yield of the four DENV serotypes [5]: increased

Molecule: [F-].[Na+] [NaF, Sodium fluoride]
- ZIKV replication in presence of drugs that block IFN-I signaling [6]: increase

Molecule: CC(/C=C/C(=O)NO)=C\[C@@H](C)C(=O)c1ccc(N(C)C)cc1 [trichostatin A]
- ZIKV replication in presence of drugs that block IFN-I signaling [6]: increase

Molecule: JAK inhibitor I
- ZIKV replication in presence of drugs that block IFN-I signaling [6]: increase
